Laboratory results reported in ChEMBL document CHEMBL3045810, “Synthesis and evaluation of 4-(substituted)-acetylamino-3-mercapto-5-(4-substituted) phenyl-1,2,4-triazole derivatives as antimicrobial agents” (2012).
Active and inactive are the calls of the source. No cut-off for these calls is given here.

Key:
Aspergillus niger [1] = assay: Antifungal activity against Aspergillus niger MTCC 3323 at 50 ug/ml by paper disk diffusion method; assay type: functional; details: read-out: DIZ
Pseudomonas aeruginosa [2] = assay: Antibacterial activity against Pseudomonas aeruginosa ATCC 27853 at 30 ug/ml after 24 hr by paper disk diffusion method; assay type: functional; details: ATCC 27853, 24 h, read-out: DIZ
Fusarium oxysporum [3] = assay: Antifungal activity against Fusarium oxysporum MTCC 2087 at 70 ug/ml by paper disk diffusion method; assay type: functional; details: read-out: DIZ
Candida albicans [4] = assay: Antifungal activity against Candida albicans MTCC 227 at 50 ug/ml by paper disk diffusion method; assay type: functional; details: read-out: DIZ
Fusarium oxysporum [5] = assay: Antifungal activity against Fusarium oxysporum MTCC 2087 at 30 ug/ml by paper disk diffusion method; assay type: functional; details: read-out: DIZ
Staphylococcus aureus [6] = assay: Antibacterial activity against Staphylococcus aureus ATCC 25923 at 70 ug/ml after 24 hr by paper disk diffusion method; assay type: functional; details: ATCC 25923, 24 h, read-out: DIZ
Pseudomonas aeruginosa [7] = assay: Antibacterial activity against Pseudomonas aeruginosa ATCC 27853 at 50 ug/ml after 24 hr by paper disk diffusion method; assay type: functional; details: ATCC 27853, 24 h, read-out: DIZ
Candida albicans [8] = assay: Fungicidal activity against Candida albicans MTCC 227; assay type: functional, organism-based
Aspergillus niger [9] = assay: Fungicidal activity against Aspergillus niger MTCC 3323; assay type: functional, organism-based
Bacillus subtilis [10] = assay: Antibacterial activity against Bacillus subtilis ATCC 6633 at 30 ug/ml after 24 hr by paper disk diffusion method; assay type: functional; details: ATCC 6633, 24 h, read-out: DIZ
Candida albicans [11] = assay: Antifungal activity against Candida albicans MTCC 227 at 70 ug/ml by paper disk diffusion method; assay type: functional; details: read-out: DIZ
Escherichia coli [12] = assay: Bactericidal activity against Escherichia coli ATCC 8793; assay type: functional, organism-based
Pseudomonas aeruginosa [13] = assay: Antibacterial activity against Pseudomonas aeruginosa ATCC 27853 at 70 ug/ml after 24 hr by paper disk diffusion method; assay type: functional; details: ATCC 27853, 24 h, read-out: DIZ
Staphylococcus aureus [14] = assay: Antibacterial activity against Staphylococcus aureus ATCC 25923 at 50 ug/ml after 24 hr by paper disk diffusion method; assay type: functional; details: ATCC 25923, 24 h, read-out: DIZ
Pseudomonas aeruginosa [15] = assay: Bactericidal activity against Pseudomonas aeruginosa ATCC 27853; assay type: functional, organism-based
Escherichia coli [16] = assay: Antibacterial activity against Escherichia coli ATCC 8793 at 50 ug/ml after 24 hr by paper disk diffusion method; assay type: functional; details: ATCC 8793, 24 h, read-out: DIZ
Fusarium oxysporum [17] = assay: Antifungal activity against Fusarium oxysporum MTCC 2087 at 50 ug/ml by paper disk diffusion method; assay type: functional; details: read-out: DIZ
Aspergillus niger [18] = assay: Antifungal activity against Aspergillus niger MTCC 3323 at 70 ug/ml by paper disk diffusion method; assay type: functional; details: read-out: DIZ
Bacillus subtilis [19] = assay: Antibacterial activity against Bacillus subtilis ATCC 6633 at 50 ug/ml after 24 hr by paper disk diffusion method; assay type: functional; details: ATCC 6633, 24 h, read-out: DIZ
Aspergillus niger [20] = assay: Antifungal activity against Aspergillus niger MTCC 3323 at 30 ug/ml by paper disk diffusion method; assay type: functional; details: read-out: DIZ
Fusarium oxysporum [21] = assay: Fungicidal activity against Fusarium oxysporum MTCC 2087; assay type: functional, organism-based
Escherichia coli [22] = assay: Antibacterial activity against Escherichia coli ATCC 8793 at 30 ug/ml after 24 hr by paper disk diffusion method; assay type: functional; details: ATCC 8793, 24 h, read-out: DIZ
Escherichia coli [23] = assay: Antibacterial activity against Escherichia coli ATCC 8793 at 70 ug/ml after 24 hr by paper disk diffusion method; assay type: functional; details: ATCC 8793, 24 h, read-out: DIZ
Bacillus subtilis [24] = assay: Antibacterial activity against Bacillus subtilis ATCC 6633 at 70 ug/ml after 24 hr by paper disk diffusion method; assay type: functional; details: ATCC 6633, 24 h, read-out: DIZ
Candida albicans [25] = assay: Antifungal activity against Candida albicans MTCC 227 at 30 ug/ml by paper disk diffusion method; assay type: functional; details: read-out: DIZ
Bacillus subtilis [26] = assay: Bactericidal against Bacillus subtilis ATCC 6633; assay type: functional, organism-based
Staphylococcus aureus [27] = assay: Bactericidal activity against Staphylococcus aureus ATCC 25923; assay type: functional, organism-based
Staphylococcus aureus [28] = assay: Antibacterial activity against Staphylococcus aureus ATCC 25923 at 30 ug/ml after 24 hr by paper disk diffusion method; assay type: functional; details: ATCC 25923, 24 h, read-out: DIZ

SMILES	zone of inhibition at 50 µg/mL (Aspergillus niger [1]) [mm]	zone of inhibition at 30 µg/mL (Pseudomonas aeruginosa [2]) [mm]	zone of inhibition at 70 µg/mL (Fusarium oxysporum [3]) [mm]	zone of inhibition at 50 µg/mL (Candida albicans [4]) [mm]	zone of inhibition at 30 µg/mL (Fusarium oxysporum [5]) [mm]	zone of inhibition at 70 µg/mL (Staphylococcus aureus [6]) [mm]	zone of inhibition at 50 µg/mL (Pseudomonas aeruginosa [7]) [mm]	Activity (Candida albicans [8])	Activity (Aspergillus niger [9])	zone of inhibition at 30 µg/mL (Bacillus subtilis [10]) [mm]	zone of inhibition at 70 µg/mL (Candida albicans [11]) [mm]	Activity (Escherichia coli [12])	zone of inhibition at 70 µg/mL (Pseudomonas aeruginosa [13]) [mm]	zone of inhibition at 50 µg/mL (Staphylococcus aureus [14]) [mm]	Activity (Pseudomonas aeruginosa [15])	zone of inhibition at 50 µg/mL (Escherichia coli [16]) [mm]	zone of inhibition at 50 µg/mL (Fusarium oxysporum [17]) [mm]	zone of inhibition at 70 µg/mL (Aspergillus niger [18]) [mm]	zone of inhibition at 30 µg/mL (Escherichia coli [22]) [mm]	zone of inhibition at 30 µg/mL (Staphylococcus aureus [28]) [mm]	further results
CCCCN(C)CC(=O)Nn1c(S)nnc1-c1ccc(OC)cc1	11.1	9.2	7.23	12.2	6.16	13.5	10.4	Active	Active	9.27	14.2	Active	12.2	11	Active	8.63	6.26	13.2	7.2	10.2	zone of inhibition at 50 µg/mL (Bacillus subtilis [19]): 10.2 mm; zone of inhibition at 30 µg/mL (Aspergillus niger [20]): 10.6 mm; Activity (Fusarium oxysporum [21]): Active; zone of inhibition at 70 µg/mL (Escherichia coli [23]): 9.6 mm; zone of inhibition at 70 µg/mL (Bacillus subtilis [24]): 11.2 mm; zone of inhibition at 30 µg/mL (Candida albicans [25]): 11.1 mm; Activity (Bacillus subtilis [26]): Active; Activity (Staphylococcus aureus [27]): Active
CN[C@H](CC(C)C)C(=O)N[C@H]1C(=O)N[C@@H](CC(N)=O)C(=O)N[C@H]2C(=O)N[C@H]3C(=O)N[C@H](C(=O)N[C@H](C(=O)O)c4cc(O)cc(O)c4-c4cc3ccc4O)[C@H](O)c3ccc(c(Cl)c3)Oc3cc2cc(c3O[C@@H]2O[C@H](CO)[C@@H](O)[C@H](O)[C@H]2O[C@H]2C[C@](C)(N)[C@H](O)[C@H](C)O2)Oc2ccc(cc2Cl)[C@H]1O [VANCOMYCIN]										17.4										18.2	
NCC[C@H](O)C(=O)N[C@@H]1C[C@H](N)[C@@H](O[C@H]2O[C@H](CN)[C@@H](O)[C@H](O)[C@H]2O)[C@H](O)[C@H]1O[C@H]1O[C@H](CO)[C@@H](O)[C@H](N)[C@H]1O [AMIKACIN]		22.1																	21.3		
CCCN(CCC)CC(=O)Nn1c(S)nnc1-c1ccc(C)cc1	12.3	9.56	9.96	10.5	7.26	10	10.2	Active	Active	8.93	11.3	Active	11.1	9.33	Active	10.3	8.4	14.4	9.33	8.2	zone of inhibition at 50 µg/mL (Bacillus subtilis [19]): 9.86 mm; zone of inhibition at 30 µg/mL (Aspergillus niger [20]): 11.2 mm; Activity (Fusarium oxysporum [21]): Active; zone of inhibition at 70 µg/mL (Escherichia coli [23]): 11.1 mm; zone of inhibition at 70 µg/mL (Bacillus subtilis [24]): 10.1 mm; zone of inhibition at 30 µg/mL (Candida albicans [25]): 9.13 mm; Activity (Bacillus subtilis [26]): Active; Activity (Staphylococcus aureus [27]): Active
Cc1ccc(-c2nnc(S)n2NC(=O)CN(C(C)C)C(C)C)cc1	11	8.3	8.33	9.16	6.06	9.1	9.26	inactive	inactive	7.2	10.1	Active	10.1	8.2	Active	9.2	7.17	12.2	8.2	7.3	zone of inhibition at 50 µg/mL (Bacillus subtilis [19]): 8.23 mm; zone of inhibition at 30 µg/mL (Aspergillus niger [20]): 10.1 mm; Activity (Fusarium oxysporum [21]): inactive; zone of inhibition at 70 µg/mL (Escherichia coli [23]): 10.5 mm; zone of inhibition at 70 µg/mL (Bacillus subtilis [24]): 9.23 mm; zone of inhibition at 30 µg/mL (Candida albicans [25]): 8.03 mm; Activity (Bacillus subtilis [26]): Active; Activity (Staphylococcus aureus [27]): Active
